Measurements taken from patent publication US20180071242A1, “SUBSTITUTED ACYLANILIDES AND METHODS OF USE THEREOF” (University of Tennessee Research Foundation, priority 2006, published 2018).

Assays:
PR = target: T1, PR (Rattus norvegicus, UniProt Q63449); test: Transient transfection luciferase transactivation assay in HEK-293 cells; assay type: cell-based; conditions: 1 nM
T1 construct: expressed in transfected cells; host or cells: HEK-293
T1 sequence (Q63449 1-923): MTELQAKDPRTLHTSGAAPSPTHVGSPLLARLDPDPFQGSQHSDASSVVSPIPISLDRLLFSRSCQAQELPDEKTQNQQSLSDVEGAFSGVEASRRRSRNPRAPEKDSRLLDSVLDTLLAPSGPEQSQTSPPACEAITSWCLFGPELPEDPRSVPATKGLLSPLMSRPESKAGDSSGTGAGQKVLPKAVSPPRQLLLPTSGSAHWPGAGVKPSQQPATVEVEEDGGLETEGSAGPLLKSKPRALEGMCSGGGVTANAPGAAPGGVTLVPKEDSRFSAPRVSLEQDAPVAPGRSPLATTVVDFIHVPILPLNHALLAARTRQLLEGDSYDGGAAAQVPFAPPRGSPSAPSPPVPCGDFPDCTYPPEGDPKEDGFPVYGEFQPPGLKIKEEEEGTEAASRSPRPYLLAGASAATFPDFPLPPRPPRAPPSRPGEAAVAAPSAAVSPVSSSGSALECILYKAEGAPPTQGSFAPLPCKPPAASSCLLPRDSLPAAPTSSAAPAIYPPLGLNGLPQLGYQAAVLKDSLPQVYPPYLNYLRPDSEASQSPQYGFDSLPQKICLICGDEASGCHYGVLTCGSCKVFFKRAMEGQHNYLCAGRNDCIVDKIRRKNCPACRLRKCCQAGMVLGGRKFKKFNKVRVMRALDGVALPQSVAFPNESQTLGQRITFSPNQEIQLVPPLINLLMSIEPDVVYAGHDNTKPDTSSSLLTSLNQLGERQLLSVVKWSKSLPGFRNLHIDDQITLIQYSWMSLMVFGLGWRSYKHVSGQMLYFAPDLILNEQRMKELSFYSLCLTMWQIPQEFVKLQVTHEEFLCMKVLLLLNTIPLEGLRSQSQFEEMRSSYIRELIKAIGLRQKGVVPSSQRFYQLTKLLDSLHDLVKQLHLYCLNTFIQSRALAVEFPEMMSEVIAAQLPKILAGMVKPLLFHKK

[1] = tested on: orchidectomized (ORX) male Sprague-Dawley rats; test: Anabolic and androgenic activity in castrated (ORX) male rats; assay type: in vivo, rat; conditions: maximally stimulated
Protocol: Anabolic and androgenic efficacy of compound of formula (I) administered by daily oral gavage were tested. The S-isomer of compound (I) [S-(I)] was synthesized and tested as described herein.
The test article for this study was weighed and dissolved in 10% DMSO (Fischer) diluted with PEG 300 (Acros Organics, NJ) for preparation of the appropriate dosage concentrations. The animals were housed in groups of 2 to 3 animals per cage. Animals were randomly assigned to one of seven groups consisting of 4 to 5 animals per group. Control groups (intact and ORX) were administered vehicle daily. S-(I) was administered via oral gavage at doses of 0.01, 0.03, 0.1, 0.3, 0.75, and 1 mg/day to both intact and ORX groups. Where appropriate, animals were castrated on day one of the study. Treatment with S-(I) began nine days post ORX and was administered daily via oral gavage for fourteen days.
The animals were sacrificed under anesthesia (ketamine/xyalzine, 87:13 mg/kg) and body weights were recorded. In addition, ventral prostate, seminal vesicles, and levator ani muscle were removed, individually weighed, normalized to body weight, and expressed as a percentage of intact control. Student's T-test was used to compare individual dose groups to the intact control group. Significance was defined a priori as a P-value <0.05. Ventral prostate and seminal vesicle weights were evaluated as a measure of androgenic activity, whereas levator ani muscle weight was evaluated as a measure of anabolic activity. Blood was collected from the abdominal aorta, centrifuged, and sera were frozen at −80° C. prior to determination of serum hormone levels. Serum luteinizing hormone (LH) and follicle stimulating hormone (FSH) concentrations were determined.

[2] = tested on: DMD (−/−) UTRN (−/−) mice; test: Double knockout mouse model of Duchenne muscular dystrophy; conditions: 10 mg/kg/day, data cumulative across the SARM groups
CYP2C9 = target: T2, CYP2C9 (Homo sapiens, UniProt P11712); test: CYP inhibition screening, recombinant enzyme (fluorescent-based) assay; assay type: in vitro ADME; conditions: human, 30 min
T2 construct: purchased Gentest, BD Biosciences
T2 sequence (P11712 whole entry): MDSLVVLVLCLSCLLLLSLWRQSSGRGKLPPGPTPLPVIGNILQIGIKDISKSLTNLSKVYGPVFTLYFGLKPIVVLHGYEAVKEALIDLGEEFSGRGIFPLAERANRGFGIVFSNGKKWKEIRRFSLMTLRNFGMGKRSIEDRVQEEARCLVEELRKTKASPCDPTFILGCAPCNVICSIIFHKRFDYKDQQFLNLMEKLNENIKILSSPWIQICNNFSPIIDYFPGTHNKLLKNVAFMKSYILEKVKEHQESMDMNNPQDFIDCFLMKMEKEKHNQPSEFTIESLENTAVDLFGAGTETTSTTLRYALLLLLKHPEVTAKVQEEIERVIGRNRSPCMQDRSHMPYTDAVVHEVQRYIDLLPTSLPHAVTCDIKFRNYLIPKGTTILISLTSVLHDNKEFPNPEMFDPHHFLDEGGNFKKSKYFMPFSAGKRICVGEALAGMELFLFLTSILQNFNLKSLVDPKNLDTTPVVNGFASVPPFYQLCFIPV

MR = target: T3, MR (Rattus norvegicus, UniProt P22199); test: Transient transfection luciferase transactivation assay in HEK-293 cells; assay type: cell-based; conditions: 1 nM
T3 construct: expressed in transfected cells; host or cells: HEK-293
T3 sequence (P22199 1-981): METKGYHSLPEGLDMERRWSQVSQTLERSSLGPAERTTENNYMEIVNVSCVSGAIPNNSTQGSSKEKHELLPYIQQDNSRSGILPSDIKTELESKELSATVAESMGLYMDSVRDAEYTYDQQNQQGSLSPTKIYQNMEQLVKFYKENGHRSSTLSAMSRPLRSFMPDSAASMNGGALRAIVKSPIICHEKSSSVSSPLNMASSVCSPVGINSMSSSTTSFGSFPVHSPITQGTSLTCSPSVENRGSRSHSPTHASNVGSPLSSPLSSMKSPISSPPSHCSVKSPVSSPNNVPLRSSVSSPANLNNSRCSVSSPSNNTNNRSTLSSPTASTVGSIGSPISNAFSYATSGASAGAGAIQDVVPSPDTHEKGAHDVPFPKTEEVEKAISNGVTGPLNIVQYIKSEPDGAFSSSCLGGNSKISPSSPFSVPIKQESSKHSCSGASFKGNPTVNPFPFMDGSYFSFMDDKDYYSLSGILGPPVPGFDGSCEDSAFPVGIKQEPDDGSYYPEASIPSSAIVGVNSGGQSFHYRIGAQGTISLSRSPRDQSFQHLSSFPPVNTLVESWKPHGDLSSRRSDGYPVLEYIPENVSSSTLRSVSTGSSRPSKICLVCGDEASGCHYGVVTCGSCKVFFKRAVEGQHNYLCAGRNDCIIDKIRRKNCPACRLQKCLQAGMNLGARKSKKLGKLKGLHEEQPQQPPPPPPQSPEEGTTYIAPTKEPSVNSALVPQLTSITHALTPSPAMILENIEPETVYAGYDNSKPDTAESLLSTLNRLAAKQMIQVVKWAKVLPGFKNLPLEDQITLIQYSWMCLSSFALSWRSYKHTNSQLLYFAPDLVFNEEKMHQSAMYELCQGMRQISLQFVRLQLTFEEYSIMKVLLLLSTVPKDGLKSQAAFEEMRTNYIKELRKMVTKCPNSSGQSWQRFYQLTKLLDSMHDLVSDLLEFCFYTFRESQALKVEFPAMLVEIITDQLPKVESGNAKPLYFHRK

GR = target: T4, GR (Rattus norvegicus, UniProt P06536); test: as above; assay type: cell-based; conditions: 1 nM
T4 construct: expressed in transfected cells; host or cells: HEK-293
T4 sequence (P06536 1-795): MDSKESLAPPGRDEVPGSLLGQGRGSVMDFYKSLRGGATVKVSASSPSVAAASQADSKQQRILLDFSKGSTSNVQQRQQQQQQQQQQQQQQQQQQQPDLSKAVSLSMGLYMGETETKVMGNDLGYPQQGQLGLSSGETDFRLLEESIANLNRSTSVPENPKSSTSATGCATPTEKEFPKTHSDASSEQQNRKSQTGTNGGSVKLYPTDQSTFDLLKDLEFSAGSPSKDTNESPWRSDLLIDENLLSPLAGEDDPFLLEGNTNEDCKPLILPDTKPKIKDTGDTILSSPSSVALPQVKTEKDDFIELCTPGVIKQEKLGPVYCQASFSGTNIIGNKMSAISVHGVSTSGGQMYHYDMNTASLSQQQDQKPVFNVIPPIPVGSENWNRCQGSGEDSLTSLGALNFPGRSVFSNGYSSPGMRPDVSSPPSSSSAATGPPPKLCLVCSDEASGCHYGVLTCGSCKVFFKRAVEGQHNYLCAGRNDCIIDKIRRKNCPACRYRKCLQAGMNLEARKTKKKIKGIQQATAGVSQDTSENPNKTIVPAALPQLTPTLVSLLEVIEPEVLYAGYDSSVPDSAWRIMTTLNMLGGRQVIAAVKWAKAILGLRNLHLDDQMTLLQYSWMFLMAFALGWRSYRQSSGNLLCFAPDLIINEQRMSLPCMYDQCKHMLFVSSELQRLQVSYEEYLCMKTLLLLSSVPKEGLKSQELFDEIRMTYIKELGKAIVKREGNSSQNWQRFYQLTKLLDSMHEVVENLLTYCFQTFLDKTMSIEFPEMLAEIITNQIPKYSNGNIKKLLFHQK

CC#C[C@]1(O)CC[C@H]2[C@@H]3CCC4=CC(=O)CCC4=C3[C@@H](c3ccc(N(C)C)cc3)C[C@@]21C [RU486, reference compound]
Inhibition of PR activity, antagonist mode (in words) (PR): completely inhibited

CC(=O)Nc1ccc(OC[C@](C)(O)C(=O)Nc2ccc([N+](=O)[O-])c(C(F)(F)F)c2)cc1 [S-4, S-3-(4-acetylaminophenoxy)-2-hydroxy-2-methyl-N-(4-nitro-3-trifluoromethylphenyl)propanamide, reference compound]
Maximal stimulation of levator ani muscle weight [1]: 101%

C[C@](O)(COc1ccc(C#N)cc1)C(=O)Nc1ccc(C#N)c(C(F)(F)F)c1 [S-(IV)]
Ability to be ambulatory (in words) [2]: enhanced the ability of these mice to be ambulatory | Deterioration of body weight (in words) [2]: delayed the deterioration | Deterioration of grip strength (in words) [2]: delayed the deterioration | Deterioration of lean mass (in words) [2]: delayed the deterioration

C[C@](O)(COc1ccc(C#N)c(F)c1)C(=O)Nc1ccc(C#N)c(C(F)(F)F)c1 [S-(V)]
Ability to be ambulatory (in words) [2]: enhanced the ability of these mice to be ambulatory | Deterioration of body weight (in words) [2]: delayed the deterioration | Deterioration of grip strength (in words) [2]: delayed the deterioration | Deterioration of lean mass (in words) [2]: delayed the deterioration

Nc1ccc(S(=O)(=O)Nc2ccnn2-c2ccccc2)cc1 [Sulfaphenazole, reference compound]
Inhibition of CYP2C9 activity (in words) (CYP2C9): potently inhibited

CCC(=O)O[C@H]1CC[C@H]2[C@@H]3CCC4=CC(=O)CC[C@]4(C)[C@H]3CC[C@]12C [Testosterone propionate, reference compound]
Maximal stimulation of levator ani muscle weight [1]: 104%

C[C@]12CCC(=O)C=C1CC[C@@H]1[C@@H]2[C@@H](O)C[C@]2(C=O)[C@@H](C(=O)CO)CC[C@@H]12 [aldosterone, reference compound]
MR activity induced by known ligand (MR): 60 fold

C[C@@H]1C[C@H]2[C@@H]3CCC4=CC(=O)C=C[C@]4(C)[C@@]3(F)[C@@H](O)C[C@]2(C)[C@@]1(O)C(=O)CO [dexamethasone, reference compound]
GR activity induced by known ligand (GR): 70 fold

CC(=O)[C@H]1CC[C@H]2[C@@H]3CCC4=CC(=O)CC[C@]4(C)[C@H]3CC[C@]12C [progesterone, reference compound]
PR activity induced by known ligand (PR): 23 fold
